# Experimental data: ChEMBL document CHEMBL3885881, “DrugMatrix”
# Species on record: Rattus norvegicus
# Assay: DrugMatrix - Regimen: Daily Repeat
# Assay type: toxicity, organism-based, Sprague-Dawley
# Design: regimen Daily Repeat, gender Male, age 6-8 weeks
# Conditions: in vivo, po, route oral GAVAGE, vehicle 100 % WATER; for ABSOLUTE BASOPHIL / ABSOLUTE EOSINOPHIL / ABSOLUTE LYMPHOCYTE / ABSOLUTE MONOCYTE / ABSOLUTE SEGMENTED NEUTROPHIL / BASOPHIL / EOSINOPHIL / ERYTHROCYTE COUNT / HEMATOCRIT / HEMOGLOBIN / LEUKOCYTE COUNT / LYMPHOCYTE / MEAN CORPUSCULAR HEMOGLOBIN / MEAN CORPUSCULAR HEMOGLOBIN CONCENTRATION / MEAN CORPUSCULAR VOLUME / MONOCYTE / NEUTROPHIL / NUCLEATED RED BLOOD CELLS / PLATELET COUNT: tissue Blood; for ALANINE AMINOTRANSFERASE / ALBUMIN / ALKALINE PHOSPHATASE / ASPARTATE AMINOTRANSFERASE / BLOOD UREA NITROGEN / CARBON DIOXIDE / CHLORIDE / CHOLESTEROL / CREATINE PHOSPHOKINASE / CREATININE / GLUCOSE / LACTATE DEHYDROGENASE / LIPASE / PHOSPHORUS / POTASSIUM / SODIUM / TOTAL BILIRUBIN / TOTAL PROTEIN / URIC ACID: tissue Plasma
# [1] = 5 mg/kg, 120 h, dose level Low, time 5 day
# [2] = 500 mg/kg, 72 h, dose level High, time 3 day
# [3] = 500 mg/kg, 120 h, dose level High, time 5 day
structure (smiles),measurement,setting,value
COc1cc2nc(N3CCN(C(=O)C4COc5ccccc5O4)CC3)nc(N)c2cc1OC (centres undefined) [DOXAZOSIN],ABSOLUTE BASOPHIL,[1],0 CELLS/uL
same,ABSOLUTE EOSINOPHIL,[1],0 CELLS/uL
same,ABSOLUTE LYMPHOCYTE,[1],9952.67 CELLS/uL
same,ABSOLUTE MONOCYTE,[1],136 CELLS/uL
same,ABSOLUTE SEGMENTED NEUTROPHIL,[1],844.67 CELLS/uL
same,BASOPHIL,[1],0%
same,EOSINOPHIL,[1],0%
same,ERYTHROCYTE COUNT,[1],5.87 x10E6/uL
same,HEMATOCRIT,[1],36.6%
same,HEMOGLOBIN,[1],13.9 G/DL
same,LEUKOCYTE COUNT,[1],10.93 x10E3/uL
same,LYMPHOCYTE,[1],91%
same,MEAN CORPUSCULAR HEMOGLOBIN,[1],23.73 pg
same,MEAN CORPUSCULAR HEMOGLOBIN CONCENTRATION,[1],37.97 G/DL
same,MEAN CORPUSCULAR VOLUME,[1],62.47 fL
same,MONOCYTE,[1],1.33%
same,NEUTROPHIL,[1],7.67%
same,NUCLEATED RED BLOOD CELLS,[1],0 /100WBC
same,PLATELET COUNT,[1],1169.67 x10E3/uL
same,ALANINE AMINOTRANSFERASE,[1],54.67 u/L
same,ALBUMIN,[1],4.07 G/DL
same,ALKALINE PHOSPHATASE,[1],345.67 u/L
same,ASPARTATE AMINOTRANSFERASE,[1],85.33 u/L
same,BLOOD UREA NITROGEN,[1],17.67 mg/dL
same,CARBON DIOXIDE,[1],33 mmol/L
same,CHLORIDE,[1],101.67 MEQ/L
same,CHOLESTEROL,[1],70.33 mg/dL
same,CREATINE PHOSPHOKINASE,[1],283.33 u/L
same,CREATININE,[1],0.19 mg/dL
same,GLUCOSE,[1],123 mg/dL
same,LACTATE DEHYDROGENASE,[1],105 u/L
same,LIPASE,[1],11.33 u/L
same,PHOSPHORUS,[1],11.23 mg/dL
same,POTASSIUM,[1],6.38 MEQ/L
same,SODIUM,[1],145.93 MEQ/L
same,TOTAL BILIRUBIN,[1],0.17 mg/dL
same,TOTAL PROTEIN,[1],6.07 G/DL
same,URIC ACID,[1],1.13 mg/dL
same,ABSOLUTE BASOPHIL,[2],0 CELLS/uL
same,ABSOLUTE EOSINOPHIL,[2],73 CELLS/uL
same,ABSOLUTE LYMPHOCYTE,[2],6631.33 CELLS/uL
same,ABSOLUTE MONOCYTE,[2],53.67 CELLS/uL
same,ABSOLUTE SEGMENTED NEUTROPHIL,[2],808.67 CELLS/uL
same,BASOPHIL,[2],0%
same,EOSINOPHIL,[2],1.33%
same,ERYTHROCYTE COUNT,[2],5.62 x10E6/uL
same,HEMATOCRIT,[2],34.87%
same,HEMOGLOBIN,[2],13.47 G/DL
same,LEUKOCYTE COUNT,[2],7.57 x10E3/uL
same,LYMPHOCYTE,[2],85.33%
same,MEAN CORPUSCULAR HEMOGLOBIN,[2],23.97 pg
same,MEAN CORPUSCULAR HEMOGLOBIN CONCENTRATION,[2],38.63 G/DL
same,MEAN CORPUSCULAR VOLUME,[2],62.07 fL
same,MONOCYTE,[2],1%
same,NEUTROPHIL,[2],12.33%
same,NUCLEATED RED BLOOD CELLS,[2],0 /100WBC
same,PLATELET COUNT,[2],1290.67 x10E3/uL
same,ALANINE AMINOTRANSFERASE,[2],66 u/L
same,ALBUMIN,[2],4.03 G/DL
same,ALKALINE PHOSPHATASE,[2],327 u/L
same,ASPARTATE AMINOTRANSFERASE,[2],79 u/L
same,BLOOD UREA NITROGEN,[2],14.33 mg/dL
same,CARBON DIOXIDE,[2],29.67 mmol/L
same,CHLORIDE,[2],100.33 MEQ/L
same,CHOLESTEROL,[2],97.33 mg/dL
same,CREATINE PHOSPHOKINASE,[2],248 u/L
same,CREATININE,[2],0.21 mg/dL
same,GLUCOSE,[2],140.67 mg/dL
same,LACTATE DEHYDROGENASE,[2],232.33 u/L
same,LIPASE,[2],10.33 u/L
same,PHOSPHORUS,[2],10.53 mg/dL
same,POTASSIUM,[2],5.08 MEQ/L
same,SODIUM,[2],143.17 MEQ/L
same,TOTAL BILIRUBIN,[2],0.37 mg/dL
same,TOTAL PROTEIN,[2],6.17 G/DL
same,URIC ACID,[2],0.67 mg/dL
same,ABSOLUTE BASOPHIL,[3],0 CELLS/uL
same,ABSOLUTE EOSINOPHIL,[3],121 CELLS/uL
same,ABSOLUTE LYMPHOCYTE,[3],10491.67 CELLS/uL
same,ABSOLUTE MONOCYTE,[3],80.67 CELLS/uL
same,ABSOLUTE SEGMENTED NEUTROPHIL,[3],940 CELLS/uL
same,BASOPHIL,[3],0%
same,EOSINOPHIL,[3],1%
same,ERYTHROCYTE COUNT,[3],5.32 x10E6/uL
same,HEMATOCRIT,[3],33.53%
same,HEMOGLOBIN,[3],13.03 G/DL
same,LEUKOCYTE COUNT,[3],11.63 x10E3/uL
same,LYMPHOCYTE,[3],90.33%
same,MEAN CORPUSCULAR HEMOGLOBIN,[3],24.5 pg
same,MEAN CORPUSCULAR HEMOGLOBIN CONCENTRATION,[3],38.93 G/DL
same,MEAN CORPUSCULAR VOLUME,[3],62.93 fL
same,MONOCYTE,[3],0.67%
same,NEUTROPHIL,[3],8%
same,NUCLEATED RED BLOOD CELLS,[3],0.33 /100WBC
same,PLATELET COUNT,[3],350.67 x10E3/uL
same,ALANINE AMINOTRANSFERASE,[3],64 u/L
same,ALBUMIN,[3],3.8 G/DL
same,ALKALINE PHOSPHATASE,[3],343 u/L
same,ASPARTATE AMINOTRANSFERASE,[3],99.33 u/L
same,BLOOD UREA NITROGEN,[3],18.33 mg/dL
same,CARBON DIOXIDE,[3],30.67 mmol/L
same,CHLORIDE,[3],102 MEQ/L
same,CHOLESTEROL,[3],54.67 mg/dL
same,CREATINE PHOSPHOKINASE,[3],485.67 u/L
same,CREATININE,[3],0.29 mg/dL
same,GLUCOSE,[3],141.33 mg/dL
same,LACTATE DEHYDROGENASE,[3],106.67 u/L
same,LIPASE,[3],9.67 u/L
same,PHOSPHORUS,[3],10.73 mg/dL
same,POTASSIUM,[3],5.43 MEQ/L
same,SODIUM,[3],145.97 MEQ/L
same,TOTAL BILIRUBIN,[3],0.2 mg/dL
same,TOTAL PROTEIN,[3],5.37 G/DL
same,URIC ACID,[3],0.83 mg/dL
